How the values were obtained:
[1] = target: Serine/threonine-protein kinase Nek4 (Homo sapiens) (UniProt P51957); conditions: Compound concentration 1000.0 nM
[2] = target: Serine/threonine-protein kinase 16 (Homo sapiens) (UniProt O75716); conditions: Compound concentration 1000.0 nM
[3] = target: Myosin light chain kinase family member 4 (Homo sapiens) (UniProt Q86YV6); conditions: Compound concentration 1000.0 nM
[4] = target: Phosphatidylinositol 5-phosphate 4-kinase type-2 beta (Homo sapiens) (UniProt P78356); conditions: Compound concentration 1000.0 nM
[5] = tested on: Proto-oncogene tyrosine-protein kinase receptor Ret (Homo sapiens), P07949 [M918T]; conditions: Compound concentration 1000.0 nM
[6] = target: Ephrin type-A receptor 1 (Homo sapiens) (UniProt P21709); conditions: Compound concentration 1000.0 nM
[7] = target: Proto-oncogene tyrosine-protein kinase Src (Homo sapiens) (UniProt P12931); conditions: Compound concentration 1000.0 nM
Proto-oncogene tyrosine-protein kinase Src (Homo sapiens), sequence (P12931 2-536 limits assumed): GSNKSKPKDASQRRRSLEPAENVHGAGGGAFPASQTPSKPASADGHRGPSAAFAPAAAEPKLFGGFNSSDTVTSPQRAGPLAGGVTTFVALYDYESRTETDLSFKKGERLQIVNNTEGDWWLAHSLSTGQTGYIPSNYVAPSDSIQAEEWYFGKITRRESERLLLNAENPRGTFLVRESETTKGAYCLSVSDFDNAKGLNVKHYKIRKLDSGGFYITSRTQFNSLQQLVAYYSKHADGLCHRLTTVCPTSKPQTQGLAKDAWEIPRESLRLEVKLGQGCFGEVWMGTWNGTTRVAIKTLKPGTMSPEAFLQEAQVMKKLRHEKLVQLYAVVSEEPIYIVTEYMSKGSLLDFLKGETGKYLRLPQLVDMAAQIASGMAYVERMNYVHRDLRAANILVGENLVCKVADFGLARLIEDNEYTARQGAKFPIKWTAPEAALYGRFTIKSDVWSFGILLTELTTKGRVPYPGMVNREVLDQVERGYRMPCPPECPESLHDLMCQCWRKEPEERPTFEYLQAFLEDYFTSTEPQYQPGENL

[8] = target: Tyrosine-protein kinase ABL1 (Homo sapiens) (UniProt P00519); conditions: Compound concentration 1000.0 nM
[9] = target: Serine/threonine-protein kinase Sgk2 (Homo sapiens) (UniProt Q9HBY8); conditions: Compound concentration 1000.0 nM
Serine/threonine-protein kinase Sgk2 (Homo sapiens), sequence (Q9HBY8 whole entry): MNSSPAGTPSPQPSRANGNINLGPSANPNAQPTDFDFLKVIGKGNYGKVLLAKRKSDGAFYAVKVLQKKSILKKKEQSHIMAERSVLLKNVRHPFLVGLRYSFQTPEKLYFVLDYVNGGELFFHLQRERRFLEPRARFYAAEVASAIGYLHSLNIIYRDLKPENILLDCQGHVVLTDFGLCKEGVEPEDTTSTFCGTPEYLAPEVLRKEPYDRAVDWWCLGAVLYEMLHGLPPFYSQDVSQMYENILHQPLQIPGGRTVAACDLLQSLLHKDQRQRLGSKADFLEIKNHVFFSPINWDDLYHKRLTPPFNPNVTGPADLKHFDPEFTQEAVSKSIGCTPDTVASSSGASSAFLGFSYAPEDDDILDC

[10] = tested on: Tyrosine-protein kinase ABL1 (Homo sapiens), P00519 [T315I]; conditions: Compound concentration 1000.0 nM
[11] = target: Interleukin-1 receptor-associated kinase 1 (Homo sapiens) (UniProt P51617); conditions: Compound concentration 1000.0 nM
Interleukin-1 receptor-associated kinase 1 (Homo sapiens), sequence (P51617 whole entry, looked up, canonical isoform): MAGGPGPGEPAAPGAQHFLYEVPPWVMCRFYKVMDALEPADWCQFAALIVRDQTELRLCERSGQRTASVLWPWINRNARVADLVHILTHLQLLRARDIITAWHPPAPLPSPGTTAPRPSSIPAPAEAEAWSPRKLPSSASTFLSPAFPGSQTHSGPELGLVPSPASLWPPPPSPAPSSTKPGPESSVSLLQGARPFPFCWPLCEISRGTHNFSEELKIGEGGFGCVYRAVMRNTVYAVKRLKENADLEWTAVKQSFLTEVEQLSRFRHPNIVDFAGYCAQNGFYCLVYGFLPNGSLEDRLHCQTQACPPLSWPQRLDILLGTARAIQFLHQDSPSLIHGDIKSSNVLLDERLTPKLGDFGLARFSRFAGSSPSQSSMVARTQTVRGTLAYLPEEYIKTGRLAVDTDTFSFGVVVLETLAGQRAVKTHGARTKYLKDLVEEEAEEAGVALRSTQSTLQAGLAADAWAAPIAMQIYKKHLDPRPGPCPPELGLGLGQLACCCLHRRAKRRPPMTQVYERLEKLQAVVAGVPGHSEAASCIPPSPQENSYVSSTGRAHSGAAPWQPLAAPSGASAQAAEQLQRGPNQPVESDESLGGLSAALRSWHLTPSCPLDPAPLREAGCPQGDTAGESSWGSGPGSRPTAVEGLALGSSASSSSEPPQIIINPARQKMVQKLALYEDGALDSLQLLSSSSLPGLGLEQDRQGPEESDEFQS

[12] = target: Casein kinase I isoform gamma-2 (Homo sapiens) (UniProt P78368); conditions: Compound concentration 1000.0 nM
[13] = target: Mitogen-activated protein kinase 10 (Homo sapiens) (UniProt P53779); conditions: Compound concentration 1000.0 nM
[14] = target: Ephrin type-A receptor 6 (Homo sapiens) (UniProt Q9UF33); conditions: Compound concentration 1000.0 nM
[15] = target: Dual specificity mitogen-activated protein kinase kinase 3 (Homo sapiens) (UniProt P46734); conditions: Compound concentration 1000.0 nM
[16] = target: Wee1-like protein kinase (Homo sapiens) (UniProt P30291); conditions: Compound concentration 1000.0 nM
[17] = target: Serine/threonine-protein kinase B-raf (Homo sapiens) (UniProt P15056); conditions: Compound concentration 1000.0 nM
[18] = target: Mitogen-activated protein kinase 12 (Homo sapiens) (UniProt P53778); conditions: Compound concentration 1000.0 nM
[19] = target: 5'-AMP-activated protein kinase catalytic subunit alpha-2 (Homo sapiens) (UniProt P54646); conditions: Compound concentration 1000.0 nM
[20] = target: Receptor-interacting serine/threonine-protein kinase 4 (Homo sapiens) (UniProt P57078); conditions: Compound concentration 1000.0 nM
[21] = target: Dual specificity mitogen-activated protein kinase kinase 5 (Homo sapiens) (UniProt Q13163); conditions: Compound concentration 1000.0 nM
Dual specificity mitogen-activated protein kinase kinase 5 (Homo sapiens), sequence (Q13163 whole entry): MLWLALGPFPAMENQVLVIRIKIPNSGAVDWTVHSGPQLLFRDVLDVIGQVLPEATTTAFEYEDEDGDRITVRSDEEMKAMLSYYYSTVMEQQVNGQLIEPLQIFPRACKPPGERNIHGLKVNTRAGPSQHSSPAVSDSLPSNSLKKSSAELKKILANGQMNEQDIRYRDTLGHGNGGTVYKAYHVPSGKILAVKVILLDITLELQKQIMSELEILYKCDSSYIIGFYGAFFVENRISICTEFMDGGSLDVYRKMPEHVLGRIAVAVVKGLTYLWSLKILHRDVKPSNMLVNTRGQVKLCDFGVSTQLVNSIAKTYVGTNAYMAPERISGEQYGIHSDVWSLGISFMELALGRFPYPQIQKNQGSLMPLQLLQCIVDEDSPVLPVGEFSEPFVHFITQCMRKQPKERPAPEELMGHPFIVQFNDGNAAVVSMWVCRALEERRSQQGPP

[22] = target: Beta-2 adrenergic receptor (Homo sapiens) (UniProt P07550); conditions: Compound concentration 10.0 uM
[23] = target: Serine/threonine-protein kinase TNNI3K (Homo sapiens) (UniProt Q59H18); conditions: Compound concentration 1000.0 nM
[24] = target: Mitogen-activated protein kinase kinase kinase 9 (Homo sapiens) (UniProt P80192); conditions: Compound concentration 1000.0 nM
[25] = target: Atypical kinase COQ8B, mitochondrial (Homo sapiens) (UniProt Q96D53); conditions: Compound concentration 1000.0 nM
[26] = target: Inhibitor of nuclear factor kappa-B kinase subunit epsilon (Homo sapiens) (UniProt Q14164); conditions: Compound concentration 1000.0 nM
[27] = target: Membrane-associated tyrosine- and threonine-specific cdc2-inhibitory kinase (Homo sapiens) (UniProt Q99640); conditions: Compound concentration 1000.0 nM
[28] = target: Ribosomal protein S6 kinase alpha-4 (Homo sapiens) (UniProt O75676); conditions: Compound concentration 1000.0 nM
[29] = target: Serine/threonine-protein kinase TAO1 (Homo sapiens) (UniProt Q7L7X3); conditions: Compound concentration 1000.0 nM
[30] = target: Dual specificity mitogen-activated protein kinase kinase 4 (Homo sapiens) (UniProt P45985); conditions: Compound concentration 1000.0 nM
Dual specificity mitogen-activated protein kinase kinase 4 (Homo sapiens), sequence (P45985 whole entry): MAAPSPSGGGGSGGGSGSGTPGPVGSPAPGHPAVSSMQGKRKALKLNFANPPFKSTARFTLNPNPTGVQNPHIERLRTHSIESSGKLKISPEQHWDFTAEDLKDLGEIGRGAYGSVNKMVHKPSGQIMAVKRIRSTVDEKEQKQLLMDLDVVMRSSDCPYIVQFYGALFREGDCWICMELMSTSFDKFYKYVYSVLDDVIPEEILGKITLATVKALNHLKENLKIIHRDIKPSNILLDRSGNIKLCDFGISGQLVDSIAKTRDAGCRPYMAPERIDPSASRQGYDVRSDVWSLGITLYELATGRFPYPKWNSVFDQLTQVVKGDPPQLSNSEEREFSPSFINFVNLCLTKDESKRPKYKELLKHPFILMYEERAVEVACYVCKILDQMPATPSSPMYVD

[31] = target: Serine/threonine-protein kinase tousled-like 2 (Homo sapiens) (UniProt Q86UE8); conditions: Compound concentration 1000.0 nM
[32] = target: BDNF/NT-3 growth factors receptor (Homo sapiens) (UniProt Q16620); conditions: Compound concentration 1000.0 nM
[33] = target: Receptor tyrosine-protein kinase erbB-3 (Homo sapiens) (UniProt P21860); conditions: Compound concentration 1000.0 nM
[34] = target: Testis-specific serine/threonine-protein kinase 3 (Homo sapiens) (UniProt Q96PN8); conditions: Compound concentration 1000.0 nM
[35] = target: Macrophage colony-stimulating factor 1 receptor (Homo sapiens) (UniProt P07333); conditions: Compound concentration 1000.0 nM
Macrophage colony-stimulating factor 1 receptor (Homo sapiens), sequence (P07333 whole entry): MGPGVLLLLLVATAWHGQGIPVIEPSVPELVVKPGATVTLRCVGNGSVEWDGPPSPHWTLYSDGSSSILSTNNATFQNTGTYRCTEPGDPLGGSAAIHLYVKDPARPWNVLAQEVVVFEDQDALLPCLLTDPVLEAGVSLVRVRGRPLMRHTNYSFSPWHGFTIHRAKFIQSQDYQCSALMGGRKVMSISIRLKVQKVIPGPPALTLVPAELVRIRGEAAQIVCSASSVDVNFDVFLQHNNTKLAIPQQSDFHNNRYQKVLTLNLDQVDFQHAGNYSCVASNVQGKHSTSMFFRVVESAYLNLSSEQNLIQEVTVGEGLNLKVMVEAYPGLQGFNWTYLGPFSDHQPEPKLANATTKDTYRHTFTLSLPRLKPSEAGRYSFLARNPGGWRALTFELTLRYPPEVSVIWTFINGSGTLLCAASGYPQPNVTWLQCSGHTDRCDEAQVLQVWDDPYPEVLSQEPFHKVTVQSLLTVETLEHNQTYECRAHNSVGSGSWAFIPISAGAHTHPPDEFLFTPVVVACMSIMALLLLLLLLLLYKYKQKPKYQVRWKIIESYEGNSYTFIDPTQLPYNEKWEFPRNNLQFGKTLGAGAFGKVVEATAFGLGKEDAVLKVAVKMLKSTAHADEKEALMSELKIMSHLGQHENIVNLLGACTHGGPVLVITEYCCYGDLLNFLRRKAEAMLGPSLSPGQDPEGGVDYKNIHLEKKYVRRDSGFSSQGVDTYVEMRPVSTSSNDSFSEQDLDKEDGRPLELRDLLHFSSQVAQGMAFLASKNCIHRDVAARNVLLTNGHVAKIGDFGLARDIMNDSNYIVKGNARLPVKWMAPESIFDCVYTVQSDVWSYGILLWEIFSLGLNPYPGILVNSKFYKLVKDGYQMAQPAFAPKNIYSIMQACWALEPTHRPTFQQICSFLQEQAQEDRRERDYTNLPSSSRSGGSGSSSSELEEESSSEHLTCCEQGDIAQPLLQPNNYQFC

[36] = target: Activated CDC42 kinase 1 (Homo sapiens) (UniProt Q07912); conditions: Compound concentration 1000.0 nM
[37] = target: Serine/threonine-protein kinase 10 (Homo sapiens) (UniProt O94804); conditions: Compound concentration 1000.0 nM
[38] = target: Fibroblast growth factor receptor 2 (Homo sapiens) (UniProt P21802); conditions: Compound concentration 1000.0 nM
[39] = target: Ephrin type-B receptor 2 (Homo sapiens) (UniProt P29323); conditions: Compound concentration 1000.0 nM
Ephrin type-B receptor 2 (Homo sapiens), sequence (P29323 whole entry): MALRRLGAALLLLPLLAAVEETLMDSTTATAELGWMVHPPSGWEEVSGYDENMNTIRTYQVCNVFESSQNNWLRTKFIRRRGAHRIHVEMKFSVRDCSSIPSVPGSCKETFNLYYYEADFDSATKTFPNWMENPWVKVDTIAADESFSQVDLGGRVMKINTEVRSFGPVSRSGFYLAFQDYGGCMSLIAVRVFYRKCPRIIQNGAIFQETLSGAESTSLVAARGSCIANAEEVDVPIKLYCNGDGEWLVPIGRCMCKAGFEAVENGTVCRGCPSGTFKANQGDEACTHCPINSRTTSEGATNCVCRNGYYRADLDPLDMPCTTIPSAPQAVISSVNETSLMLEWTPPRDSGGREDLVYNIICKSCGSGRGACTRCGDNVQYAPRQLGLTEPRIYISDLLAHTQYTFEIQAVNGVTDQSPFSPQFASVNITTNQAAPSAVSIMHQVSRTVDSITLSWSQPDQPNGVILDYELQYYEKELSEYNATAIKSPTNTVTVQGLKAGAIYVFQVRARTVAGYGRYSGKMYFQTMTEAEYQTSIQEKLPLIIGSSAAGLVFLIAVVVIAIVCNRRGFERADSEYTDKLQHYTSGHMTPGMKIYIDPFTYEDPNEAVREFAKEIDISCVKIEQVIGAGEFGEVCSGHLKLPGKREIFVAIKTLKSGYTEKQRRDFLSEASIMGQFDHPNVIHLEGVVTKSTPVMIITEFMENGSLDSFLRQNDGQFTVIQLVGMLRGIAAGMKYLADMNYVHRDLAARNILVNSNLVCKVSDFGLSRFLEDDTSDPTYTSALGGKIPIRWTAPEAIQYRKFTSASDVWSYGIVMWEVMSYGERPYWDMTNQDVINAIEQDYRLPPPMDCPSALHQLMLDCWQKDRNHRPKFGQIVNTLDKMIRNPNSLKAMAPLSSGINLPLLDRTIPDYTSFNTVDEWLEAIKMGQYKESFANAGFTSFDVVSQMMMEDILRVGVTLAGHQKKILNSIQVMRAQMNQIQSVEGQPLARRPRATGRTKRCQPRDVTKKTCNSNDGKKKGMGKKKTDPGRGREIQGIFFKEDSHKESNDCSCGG

[40] = target: Protein-tyrosine kinase 6 (Homo sapiens) (UniProt Q13882); conditions: Compound concentration 1000.0 nM
[41] = tested on: Epidermal growth factor receptor (Homo sapiens), P00533 [UNDEFINED MUTATION]; conditions: Compound concentration 1000.0 nM
[42] = target: Focal adhesion kinase 1 (Homo sapiens) (UniProt Q05397); conditions: Compound concentration 1000.0 nM
[43] = target: Mitogen-activated protein kinase 7 (Homo sapiens) (UniProt Q13164); conditions: Compound concentration 1000.0 nM
[44] = target: Platelet-derived growth factor receptor beta (Homo sapiens) (UniProt P09619); conditions: Compound concentration 1000.0 nM
[45] = target: Tyrosine-protein kinase CSK (Homo sapiens) (UniProt P41240); conditions: Compound concentration 1000.0 nM
Tyrosine-protein kinase CSK (Homo sapiens), sequence (P41240 2-450 limits assumed): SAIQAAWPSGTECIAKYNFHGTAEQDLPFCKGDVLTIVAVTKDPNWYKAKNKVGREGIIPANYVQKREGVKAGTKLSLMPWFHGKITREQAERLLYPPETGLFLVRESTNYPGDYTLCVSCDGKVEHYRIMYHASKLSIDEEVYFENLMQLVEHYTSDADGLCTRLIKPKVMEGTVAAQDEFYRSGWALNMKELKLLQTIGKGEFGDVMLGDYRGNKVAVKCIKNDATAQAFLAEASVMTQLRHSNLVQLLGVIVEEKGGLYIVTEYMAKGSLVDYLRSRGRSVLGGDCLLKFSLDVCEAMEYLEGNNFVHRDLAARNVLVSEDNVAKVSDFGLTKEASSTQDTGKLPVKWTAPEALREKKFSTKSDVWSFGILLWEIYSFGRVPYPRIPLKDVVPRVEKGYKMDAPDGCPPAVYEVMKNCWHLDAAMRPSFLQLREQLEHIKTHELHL

O=C(Nc1cnc(Oc2ccc(F)cc2)nc1)N1CCc2ncccc2[C@@H]1c1ccc(F)cc1 [BAY-899]
inactive: residual activity [1] 79% | residual activity [2] 100% | residual activity [3] 88% | residual activity [4] 100% | residual activity [5] 95% | residual activity [6] 100% | residual activity [7] 93% | residual activity [8] 93% | residual activity [9] 79% | residual activity [10] 100% | residual activity [11] 88% | residual activity [12] 96% | residual activity [13] 88% | residual activity [14] 100% | residual activity [15] 76% | residual activity [16] 85% | residual activity [17] 74% | residual activity [18] 96% | residual activity [19] 79% | residual activity [20] 100% | residual activity [21] 83% | inhibition [22] 25.3% | residual activity [23] 100% | residual activity [24] 92% | residual activity [25] 100% | residual activity [26] 98% | residual activity [27] 80% | residual activity [28] 91% | residual activity [29] 100% | residual activity [30] 100% | residual activity [31] 89% | residual activity [32] 100% | residual activity [33] 100% | residual activity [34] 86% | residual activity [35] 93% | residual activity [36] 93% | residual activity [37] 94% | residual activity [38] 98% | residual activity [39] 87% | residual activity [40] 98% | residual activity [41] 86% | residual activity [42] 100% | residual activity [43] 96% | residual activity [44] 100% | residual activity [45] 100%

O=C(Nc1ccc(Oc2ccc(F)cc2)cc1)N1CCc2ncccc2[C@H]1c1ccc(F)cc1 [BAY-897]
inactive: residual activity [1] 94% | residual activity [2] 100% | residual activity [3] 97% | residual activity [4] 97% | residual activity [5] 100% | residual activity [6] 100% | residual activity [7] 91% | residual activity [8] 100% | residual activity [9] 100% | residual activity [10] 98% | residual activity [11] 88% | residual activity [12] 98% | residual activity [13] 82% | residual activity [14] 100% | residual activity [15] 88% | residual activity [16] 100% | residual activity [17] 85% | residual activity [18] 94% | residual activity [19] 51% | residual activity [20] 84% | residual activity [21] 81% | inhibition [22] 25.6% | residual activity [23] 100% | residual activity [24] 100% | residual activity [25] 92% | residual activity [26] 89% | residual activity [27] 63% | residual activity [28] 94% | residual activity [29] 100% | residual activity [30] 86% | residual activity [31] 100% | residual activity [32] 84% | residual activity [33] 100% | residual activity [34] 98% | residual activity [35] 95% | residual activity [36] 99% | residual activity [37] 100% | residual activity [38] 93% | residual activity [39] 91% | residual activity [40] 100% | residual activity [41] 92% | residual activity [42] 100% | residual activity [43] 96% | residual activity [44] 100% | residual activity [45] 100%
